Assay results published in patent publication US8293680B2, “Fungicidal mixtures of triticonazole and difenoconazole” (BASF SE, priority 2007, dated 2012).
Like-named read-outs stand apart in the source and are kept apart here.

Tests used:
Botrytis cinerea = experiment: Activity against the grey mold Botrytis cinerea in the microtiterplate test (Botrci); type: cell-based; conditions: solo, MTP, 405 nm, 7 days after inoculation
Pyricularia oryzae = type: cell-based; conditions: Pyrior, solo, MTP, 405 nm, 7 days after inoculation

| SMILES | Observed efficacy (Botrytis cinerea; 1 ppm) | Observed efficacy (Pyricularia oryzae; 4 ppm) | Observed efficacy (Botrytis cinerea; 0.25 ppm) | Observed efficacy (Pyricularia oryzae; 1 ppm) |
| --- | --- | --- | --- | --- |
| CC1(C)CC/C(=C\c2ccc(Cl)cc2)C1(O)Cn1cncn1 (racemic) [Triticonazol, (±) E-5-(4-chlorobenzylidene)-2,2-dimethyl-1-(1H-1,2,4-triazol-1-ylmethyl)cyclopentanol] | 55% | 35% | – | – |
| CC1COC(Cn2cncn2)(c2ccc(Oc3ccc(Cl)cc3)cc2Cl)O1 (stereo not shown) [Difenoconazol, 1-[2-[4-(4-chlorophenoxy)-2-chlorophenyl]-4-methyl-1,3-dioxolan-2-ylmethyl]-1H-1,2,4-triazole] | – | – | 30% | 15% |
